According to patent US20240228512A1, “ACYCLIC OXAZEPINE COMPOUNDS COMPRISING A 6-AZA MOIETY AND USES THEREOF” (Genentech, Inc., priority 2022, published 2024):

Columns and labels:
[1] = test system: H1975 cells; assay: H1975 CTG proliferation assay; type: cell-based; settings: Homo sapiens, NCI-H1975, H1975, CTG
[2] = test system: SW480 cells; assay: SW480 CTG proliferation assay; type: cell-based; settings: Homo sapiens
[3] = test system: HPAC cells; assay: HPAC 3D proliferation assay (CellTiter-Glo); type: cell-based; settings: Homo sapiens, 168 h, 3D culture, 7 days, read-out: HPAC CTG IC50
Experimental: (§1) SW620 and HPAC 3D proliferation assays.
(§2) Compound potencies were assessed in proliferation assays conducted with SW620 and HPAC cell lines grown in 3D cultures. Cells were seeded into 96- or 384-well ultra-low attachment plates at 3000 or 1000 cells/well, respectively, in culture medium (RPMI-1640, 10% FBS, 2 mM L-glutamine). The plated cells were centrifuged briefly, allowed to rest for 30 minutes under ambient conditions, and cultured overnight at 37° C./5% CO2 to initiate the formation of spheroids. Compound dilutions were prepared across a range of concentrations in DMSO and added to the appropriate wells of the assay plates with a 333-fold dilution into the culture medium. The plates were further incubated for 7 days. The quantity of viable cells was assessed using CellTiter-Glo 3D Cell Viability Assay (Promega). The detection reagent penetrates the spheroids and lyses the cells. The released ATP that was detected with luciferase and a luciferase substrate to generate a luminescent readout. […] The data points were fit to a 4-parameter logistic equation to determine IC50 values.

[4] = test system: SW620 cells; assay: SW620 3D proliferation assay (CellTiter-Glo); type: cell-based; settings: Homo sapiens, SW-620, 168 h, SW620, 3D culture, 7 days, read-out: SW620 CTG IC50
Experimental: as §1, §2

[5] = test system: SW620 PERK; assay: SW620 PERK assay; type: cell-based; settings: Homo sapiens, SW-620, SW620, PERK
[6] = biological target: recombinant human KRAS wild type (SOS1-mediated nucleotide exchange) (Homo sapiens (Human), UniProt P01116); assay: KRAS biochemical assay, BODIPY-GDP exchange TR-FRET (WT-GDP HTRF)
Chain of recombinant human KRAS wild type (SOS1-mediated nucleotide exchange) (P01116-2 other isoform, or with tags, fused parts or gaps): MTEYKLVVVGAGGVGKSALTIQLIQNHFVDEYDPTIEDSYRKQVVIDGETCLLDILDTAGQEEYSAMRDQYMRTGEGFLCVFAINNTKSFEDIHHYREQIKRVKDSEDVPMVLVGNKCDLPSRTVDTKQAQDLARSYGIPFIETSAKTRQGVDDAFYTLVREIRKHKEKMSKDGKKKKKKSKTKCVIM
Experimental: [Worded in the source for another variant; this variant is reported under the same test.] KRAS Biochemical Assay—BODIPY-GDP Exchange TR-FRET.
Biochemical compound potencies were assessed by evaluating inhibition of SOS1-mediated nucleotide exchange in KRAS G12D. The SOS1-promoted exchange of fluorescently-labeled GDP (BOPIDY-GDP) was monitored by time-resolved fluorescence resonance energy transfer (TR-FRET). Compounds solubilized in DMSO were dispensed as concentration series into 384-well white assay plates. […] The reaction was initiated with the addition of 5 μL of 3 nM recombinant human SOS1 and 300 nM BODIPY-GDP in assay buffer. After a 60-minute incubation, the fluorescence was measured with excitation at 337 nm and emission at 490 and 520 nm. The TR-FRET ratio was determined as the fluorescence at 520 nm divided by the fluorescence at 490 nm multiplied by 10,000. […] The normalized TR-FRET results were plotted against compound concentration, and the data fit to a 4-parameter Hill equation to determine the IC50 values.

[7] = biological target: recombinant human mutant KRas G12V (SOS1-mediated nucleotide exchange) (Homo sapiens (Human), UniProt P01116, G12V); assay: KRAS biochemical assay, BODIPY-GDP exchange TR-FRET (G12V-GDP HTRF)
Chain of recombinant human mutant KRas G12V (SOS1-mediated nucleotide exchange) (P01116-2 other isoform, or with tags, fused parts or gaps G12V): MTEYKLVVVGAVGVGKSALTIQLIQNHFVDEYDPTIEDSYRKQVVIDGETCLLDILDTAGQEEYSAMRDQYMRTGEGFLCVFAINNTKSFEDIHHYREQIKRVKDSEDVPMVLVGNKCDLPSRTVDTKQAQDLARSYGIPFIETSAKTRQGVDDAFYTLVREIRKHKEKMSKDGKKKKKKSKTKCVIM

Structure (SMILES)	IC50 [1] [nM]	IC50 [2] [nM]	IC50 [4] [nM]	IC50 [5] [nM]	IC50 [6] [nM]	IC50 [7] [nM]	IC50 [3] [nM]
Cc1c(F)c(N)nc(-c2nc3c4c(nc(OC[C@@]56CCCN5C[C@H](F)C6)nc4c2F)N([C@H](C)c2cncnc2N)CCO3)c1C(F)(F)F [Example 613, 5-((R)-1-(5-(6-amino-5-fluoro-4-methyl-3-(trifluoromethyl)pyridin-2-yl)-4-fluoro-2-(((2R,7aS)-2-fluorotetrahydro-1H-pyrrolizin-7a(5H)-yl)methoxy)-8,9-dihydro-10H-7-oxa-1,3,6,10-tetraazacyclohepta[de]naphthalen-10-yl)ethyl)pyrimidin-4-amine]	160		290	146	1.45	0.24	1520
Cc1c(F)c(N)nc(-c2nc3c4c(nc(OC[C@@]56CCCN5C[C@]5(CC5(F)F)C6)nc4c2F)N([C@H](C)c2cccnc2N)CCO3)c1C(F)(F)F [Example 614]	1960		1.75	2.42	0.16	0.12	11.5
C[C@H](c1cccnc1N)N1CCOc2nc(-c3nc(N)cc4ccccc34)c(F)c3nc(OC[C@@]45CCCN4C[C@H](F)C5)nc1c23 [Example 618, 1-(10-((R)-1-(2-aminopyridin-3-yl)ethyl)-4-fluoro-2-(((2R,7aS)-2-fluorotetrahydro-1H-pyrrolizin-7a(5H)-yl)methoxy)-9,10-dihydro-8H-7-oxa-1,3,6,10-tetraazacyclohepta[de]naphthalen-5-yl)isoquinolin-3-amine]	93.2		393	233	3.43	0.45	1050
Cc1c(F)c(N)nc(-c2nc3c4c(nc(OC[C@@]56CCCN5C[C@H](F)C6)nc4c2Cl)N([C@H](C)c2cccnc2N)CCO3)c1C(F)(F)F [Example 620, 6-(10-((R)-1-(2-aminopyridin-3-yl)ethyl)-4-chloro-2-(((2R,7aS)-2-fluorotetrahydro-1H-pyrrolizin-7a(5H)-yl)methoxy)-9,10-dihydro-8H-7-oxa-1,3,6,10-tetraazacyclohepta[de]naphthalen-5-yl)-3-fluoro-4-methyl-5-(trifluoromethyl)pyridin-2-amine]	132		19.2	4.29	0.748	0.24	89.8
Cc1nc(N)cc(-c2nc3c4c(nc(OC[C@@]56CCCN5C[C@H](F)C6)nc4c2Cl)N([C@H](C)c2cccnc2N)CCO3)c1C(F)(F)F [Example 626, 4-(10-((R)-1-(2-aminopyridin-3-yl)ethyl)-4-chloro-2-(((2R,7aS)-2-fluorotetrahydro-1H-pyrrolizin-7a(5H)-yl)methoxy)-9,10-dihydro-8H-7-oxa-1,3,6,10-tetraazacyclohepta[de]naphthalen-5-yl)-6-methyl-5-(trifluoromethyl)pyridin-2-amine]	262		27.1	10.5	0.67	0.16	160
Cc1nc(N)cc(-c2nc3c4c(nc(OC[C@@H]5CCCN5C)nc4c2F)N([C@H](C)c2cccnc2N)CCO3)c1C(F)(F)F [Example 627, 4-(10-((R)-1-(2-aminopyridin-3-yl)ethyl)-4-fluoro-2-(((S)-1-methylpyrrolidin-2-yl)methoxy)-9,10-dihydro-8H-7-oxa-1,3,6,10-tetraazacyclohepta[de]naphthalen-5-yl)-6-methyl-5-(trifluoromethyl)pyridin-2-amine]	854		193	52.6	4.67	0.44	1360
Cc1nc(N)nc(-c2nc3c4c(nc(OC[C@@]56CCCN5C[C@H](F)C6)nc4c2F)N([C@H](C)c2cccnc2N)CCO3)c1C(F)(F)F [Example 628, 4-(10-((R)-1-(2-aminopyridin-3-yl)ethyl)-4-fluoro-2-(((2R,7aS)-2-fluorotetrahydro-1H-pyrrolizin-7a(5H)-yl)methoxy)-9,10-dihydro-8H-7-oxa-1,3,6,10-tetraazacyclohepta[de]naphthalen-5-yl)-6-methyl-5-(trifluoromethyl)pyrimidin-2-amine]	471		14.6	14	0.826	0.33	331
Cc1c(F)c(N)nc(-c2nc3c4c(nc(OC[C@@]56CCCN5C[C@H](F)C6)nc4c2F)N([C@H](C)c2nccnc2N)CCO3)c1C(F)(F)F [Example 630, 3-((R)-1-(5-(6-amino-5-fluoro-4-methyl-3-(trifluoromethyl)pyridin-2-yl)-4-fluoro-2-(((2R,7aS)-2-fluorotetrahydro-1H-pyrrolizin-7a(5H)-yl)methoxy)-8,9-dihydro-10H-7-oxa-1,3,6,10-tetraazacyclohepta[de]naphthalen-10-yl)ethyl)pyrazin-2-amine]	134		28.8	21.2	2	0.32	208
Cc1c(F)c(N)nc(-c2nc3c4c(nc(OC[C@@]56CCCN5C[C@H](F)C6)nc4c2F)N([C@H](C)c2cc(F)cnc2N)CCO3)c1C(F)(F)F [Example 631, 6-(10-((R)-1-(2-amino-5-fluoropyridin-3-yl)ethyl)-4-fluoro-2-(((2R,7aS)-2-fluorotetrahydro-1H-pyrrolizin-7a(5H)-yl)methoxy)-9,10-dihydro-8H-7-oxa-1,3,6,10-tetraazacyclohepta[de]naphthalen-5-yl)-3-fluoro-4-methyl-5-(trifluoromethyl)pyridin-2-amine]	113		47.3	16.5	0.741	0.21	110

Stronger by IC50 [1], values ahead:

IC50 [1] [nM]	IC50 [2] [nM]	IC50 [4] [nM]	IC50 [5] [nM]	IC50 [6] [nM]	IC50 [7] [nM]	Structure (SMILES)	IC50 [3] [nM]
83.4		15.5	6.08	0.379	0.089	Cc1c(F)c(N)nc(-c2nc3c4c(nc(OC[C@@]56CCCN5C[C@]5(CC5(F)F)C6)nc4c2F)N([C@H](C)c2nccnc2N)CCO3)c1C(F)(F)F [Example 632]	83.4
48.4		19.9	23	0.416	0.2	Cc1cc(N)nc(-c2nc3c4c(nc(OC[C@@]56CCCN5C[C@H](F)C6)nc4c2Cl)N([C@H](C)c2cccnc2N)CCO3)c1C(F)(F)F [Example 633, 6-(10-((R)-1-(2-aminopyridin-3-yl)ethyl)-4-chloro-2-(((2R,7aS)-2-fluorotetrahydro-1H-pyrrolizin-7a(5H)-yl)methoxy)-9,10-dihydro-8H-7-oxa-1,3,6,10-tetraazacyclohepta[de]naphthalen-5-yl)-4-methyl-5-(trifluoromethyl)pyridin-2-amine]	77.8
24.4		38	28.8	0.31	0.11	Cc1c(F)c(N)cc(-c2nc3c4c(nc(OC[C@@]56CCCN5C[C@H](F)C6)nc4c2F)N([C@H](C)c2cncnc2N)CCO3)c1C(F)(F)F [Example 617, 5-((R)-1-(5-(5-amino-4-fluoro-3-methyl-2-(trifluoromethyl)phenyl)-4-fluoro-2-(((2R,7aS)-2-fluorotetrahydro-1H-pyrrolizin-7a(5H)-yl)methoxy)-8,9-dihydro-10H-7-oxa-1,3,6,10-tetraazacyclohepta[de]naphthalen-10-yl)ethyl)pyrimidin-4-amine]	239
2.59	31	1.68				CCc1cccc2cc(O)cc(-c3nc4c5c(nc(OC[C@@]67CCCN6C[C@H](F)C7)nc5c3F)N([C@H](C)c3cccnc3N)CCO4)c12 [Example 27, 4-(10-((R)-1-(2-aminopyridin-3-yl)ethyl)-4-fluoro-2-(((2R,7aS)-2-fluorotetrahydro-1H-pyrrolizin-7a(5H)-yl)methoxy)-9,10-dihydro-8H-7-oxa-1,3,6,10-tetraazacyclohepta[de]naphthalen-5-yl)-5-ethylnaphthalen-2-ol]	55.2
